Measured values as given in patent US8106055B2, “Substituted amide compounds” (Gruenenthal GmbH, priority 2007, dated 2012).

The compounds below were run against T1, serotonin (5-HT) reuptake (Rattus norvegicus, UniProt P31652) (assay: Inhibition of serotonin (5HT) reuptake in synaptosomes from rat brain). Details: test concentration of 10 μM.
T1 construct: synaptosomes are freshly isolated from areas of the rat brain; from tissue; host or cells: rat brain synaptosomes (P2 fraction)
T1 sequence (P31652 whole entry): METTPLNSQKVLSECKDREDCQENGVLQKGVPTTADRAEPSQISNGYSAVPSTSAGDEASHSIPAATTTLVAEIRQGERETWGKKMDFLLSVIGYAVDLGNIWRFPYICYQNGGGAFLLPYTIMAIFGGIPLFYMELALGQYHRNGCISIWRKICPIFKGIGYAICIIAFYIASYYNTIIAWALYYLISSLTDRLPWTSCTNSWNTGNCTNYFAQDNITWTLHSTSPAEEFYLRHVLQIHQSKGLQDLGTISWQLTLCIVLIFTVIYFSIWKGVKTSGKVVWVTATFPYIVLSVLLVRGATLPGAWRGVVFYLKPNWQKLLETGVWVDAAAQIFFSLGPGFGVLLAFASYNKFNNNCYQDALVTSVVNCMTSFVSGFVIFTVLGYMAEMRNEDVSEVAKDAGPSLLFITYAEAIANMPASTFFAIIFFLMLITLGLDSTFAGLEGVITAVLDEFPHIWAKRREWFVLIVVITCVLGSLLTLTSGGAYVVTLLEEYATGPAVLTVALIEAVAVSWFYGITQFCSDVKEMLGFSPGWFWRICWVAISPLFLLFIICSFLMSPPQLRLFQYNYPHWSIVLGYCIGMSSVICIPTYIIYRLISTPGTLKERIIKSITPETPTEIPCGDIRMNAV
Format: biochemical
How it was run: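 Freshly isolated rat brain synaptosomes (P2 fraction) used for 5-HT reuptake. Test compound at 10 μM, activity given as % inhibition.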
For CN(C)C(c1cccc(F)c1)C1CCC(CCNC(=O)COC2CCN(S(=O)(=O)c3ccccc3)CC2)CC1 (centres unmarked) [Example 444], the “5-HT (inhibition of reuptake of serotonin, % inhibition)” value was 96%.
COc1cc(C)c(S(=O)(=O)N2CCN(CCOCC(=O)NCCC3CCC(C(c4ccc(F)cc4)N(C)C)CC3)CC2)c(C)c1C (centres unmarked) [Example 387] was tested, and the “5-HT (inhibition of reuptake of serotonin, % inhibition)” value was 95%.
For COc1ccc(S(=O)(=O)N2CCC(OCC(=O)NCCC3CCC(C(c4ccc(F)cc4)N(C)C)CC3)C2)cc1OC (centres unmarked) [Example 430], the “5-HT (inhibition of reuptake of serotonin, % inhibition)” value was 92%.
With COc1ccc(S(=O)(=O)N2CCCCC2CCOCC(=O)NCCC2CCC(C(c3ccc(Cl)cc3)N(C)C)CC2)cc1 (centres unmarked) [Example 383] the “5-HT (inhibition of reuptake of serotonin, % inhibition)” value was 94%.
In the case of CN(C)C(c1ccc(F)cc1)C1CCC(CCNC(=O)COCCN(C)S(=O)(=O)c2ccc(OC(F)(F)F)cc2)CC1 (centres unmarked) [Example 446], the “5-HT (inhibition of reuptake of serotonin, % inhibition)” value is reported as 90%.
With CN(C)C(c1ccc(F)cc1)C1CCC(CNC(=O)COCCN(C)S(=O)(=O)c2ccc(OC(F)(F)F)cc2)CC1 (centres unmarked) [Example 439] the “5-HT (inhibition of reuptake of serotonin, % inhibition)” value was 94%.
In the case of Cc1cc(C)c(S(=O)(=O)N2CCC(OCC(=O)NCC3CCC(C(c4ccc(Cl)cc4)N(C)C)CC3)C2)c(C)c1 (centres unmarked) [Example 393], the “5-HT (inhibition of reuptake of serotonin, % inhibition)” value is reported as 70%.
CN(C)C(c1ccc(F)cc1)C1CCC(CCNC(=O)COCCN(C)S(=O)(=O)c2cccc(C(F)(F)F)c2)CC1 (centres unmarked) [Example 368] was tested, and the “5-HT (inhibition of reuptake of serotonin, % inhibition)” value was 95%.
In the case of Cc1cc(C)c(S(=O)(=O)N(C)CCOCC(=O)NCCC2CCC(C(c3ccc(Cl)cc3)N(C)C)CC2)c(C)c1 (centres unmarked) [Example 416], the “5-HT (inhibition of reuptake of serotonin, % inhibition)” value is reported as 103%.
For CN(C)C(c1ccc(Cl)cc1)C1CCC(CNC(=O)COCCN(C)S(=O)(=O)c2ccc(OC(F)(F)F)cc2)CC1 (centres unmarked) [Example 411], the “5-HT (inhibition of reuptake of serotonin, % inhibition)” value was 91%.
In the case of CN(C)C(CCc1ccccc1)C1CCC(CNC(=O)COCC2CCCN2S(=O)(=O)c2ccc(Cl)c(Cl)c2)CC1 (centres unmarked) [Example 415], the “5-HT (inhibition of reuptake of serotonin, % inhibition)” value is reported as 88%.
COc1cc(C)c(S(=O)(=O)N(CCOCC(=O)NCC2CCC(C(c3cccc(F)c3)N(C)C)CC2)Cc2ccccc2)c(C)c1C (centres unmarked) [Example 414] was tested, and the “5-HT (inhibition of reuptake of serotonin, % inhibition)” value was 67%.
CN(C)C(c1ccc(F)cc1)C1CCC(NC(=O)COCCN(C)S(=O)(=O)c2c(Cl)cccc2Cl)CC1 (centres unmarked) [Example 363] was tested, and the “5-HT (inhibition of reuptake of serotonin, % inhibition)” value was 73%.
For Cc1ccc(S(=O)(=O)N2CCC(OCC(=O)NC3CCC(C(c4ccc(F)cc4)N(C)C)CC3)C2)cc1 (centres unmarked) [Example 371], the “5-HT (inhibition of reuptake of serotonin, % inhibition)” value was 85%.
For CN(C)C(c1ccc(Cl)cc1)C1CCC(CCNC(=O)COCCN(C)S(=O)(=O)c2c(Cl)cc(Cl)cc2Cl)CC1 (centres unmarked) [Example 442], the “5-HT (inhibition of reuptake of serotonin, % inhibition)” value was 91%.
With COc1cc(C)c(S(=O)(=O)N(CCOCC(=O)NC2CCC(C(c3cccc(F)c3)N(C)C)CC2)Cc2ccccc2)c(C)c1 (centres unmarked) [Example 372] the “5-HT (inhibition of reuptake of serotonin, % inhibition)” value was 89%.
In the case of CN(C)C(c1ccc(F)cc1)C1CCC(CNC(=O)COC2CCN(S(=O)(=O)c3ccc(Cl)cc3Cl)C2)CC1 (centres unmarked) [Example 391], the “5-HT (inhibition of reuptake of serotonin, % inhibition)” value is reported as 85%.
CN(C)C(c1ccc(Cl)cc1)C1CCC(CCNC(=O)COCC2CCCN(S(=O)(=O)c3ccccc3)C2)CC1 (centres unmarked) [Example 425] was tested, and the “5-HT (inhibition of reuptake of serotonin, % inhibition)” value was 97%.
With COc1cc(C)c(S(=O)(=O)N2CCC(CCOCC(=O)NCCC3CCC(C(c4cccc(F)c4)N(C)C)CC3)CC2)c(C)c1C (centres unmarked) [Example 397] the “5-HT (inhibition of reuptake of serotonin, % inhibition)” value was 93%.
For CN(C)C(c1cccc(F)c1)C1CCC(NC(=O)COCCN2CCN(S(=O)(=O)c3ccccc3)CC2)CC1 (centres unmarked) [Example 364], the “5-HT (inhibition of reuptake of serotonin, % inhibition)” value was 95%.
CN(C)C(c1ccc(Cl)cc1)C1CCC(CCNC(=O)COC2CCCCC2N(C)S(=O)(=O)c2ccc(Cl)c(Cl)c2)CC1 (centres unmarked) [Example 410] was tested, and the “5-HT (inhibition of reuptake of serotonin, % inhibition)” value was 78%.
For COc1ccc(S(=O)(=O)N(C)CCOCC(=O)NC2CCC(C(c3cccc(F)c3)N(C)C)CC2)cc1OC (centres unmarked) [Example 401], the “5-HT (inhibition of reuptake of serotonin, % inhibition)” value was 99%.
For CN(C)C(c1ccc(F)cc1)C1CCC(NC(=O)COCCN(C)S(=O)(=O)c2cccc(C(F)(F)F)c2)CC1 (centres unmarked) [Example 438], the “5-HT (inhibition of reuptake of serotonin, % inhibition)” value was 84%.
With Cc1ccc(S(=O)(=O)N(C)CCOCC(=O)NC2CCC(C(c3ccc(F)cc3)N(C)C)CC2)cc1 (centres unmarked) [Example 448] the “5-HT (inhibition of reuptake of serotonin, % inhibition)” value was 94%.
In the case of CN(C)C(c1ccc(F)cc1)C1CCC(CCNC(=O)COCCN(C)S(=O)(=O)c2c(Cl)cc(Cl)cc2Cl)CC1 (centres unmarked) [Example 386], the “5-HT (inhibition of reuptake of serotonin, % inhibition)” value is reported as 98%.
For CCN(CCOCC(=O)NC1CCC(C(c2ccc(F)cc2)N(C)C)CC1)S(=O)(=O)c1c(C)cc(OC)c(C)c1C (centres unmarked) [Example 396], the “5-HT (inhibition of reuptake of serotonin, % inhibition)” value was 90%.
CN(C)C(c1ccc(Cl)cc1)C1CCC(CCNC(=O)COC2CCN(S(=O)(=O)c3ccccc3)C2)CC1 (centres unmarked) [Example 375] was tested, and the “5-HT (inhibition of reuptake of serotonin, % inhibition)” value was 88%.
In the case of CN(C)C(c1ccc(F)cc1)C1CCC(NC(=O)COC2CCN(S(=O)(=O)c3ccc(Cl)cc3)C2)CC1 (centres unmarked) [Example 370], the “5-HT (inhibition of reuptake of serotonin, % inhibition)” value is reported as 83%.
In the case of COc1cc(C)c(S(=O)(=O)N2CCCC(OCC(=O)NCC3CCC(C(c4ccc(Cl)cc4)N(C)C)CC3)C2)c(C)c1C (centres unmarked) [Example 449], the “5-HT (inhibition of reuptake of serotonin, % inhibition)” value is reported as 73%.
CN(C)C(c1cccc(F)c1)C1CCC(CCNC(=O)COC2CCN(S(=O)(=O)c3ccc(F)cc3)C2)CC1 (centres unmarked) [Example 407] was tested, and the “5-HT (inhibition of reuptake of serotonin, % inhibition)” value was 95%.
In the case of COc1cc(C)c(S(=O)(=O)N2CCCC(OCC(=O)NCC3CCC(C(c4ccc(F)cc4)N(C)C)CC3)C2)c(C)c1C (centres unmarked) [Example 418], the “5-HT (inhibition of reuptake of serotonin, % inhibition)” value is reported as 98%.
In the case of COc1cc(C)c(S(=O)(=O)N(C)CCOCC(=O)NCCC2CCC(C(c3ccc(Cl)cc3)N(C)C)CC2)c(C)c1 (centres unmarked) [Example 378], the “5-HT (inhibition of reuptake of serotonin, % inhibition)” value is reported as 83%.
With COc1cc(C)c(S(=O)(=O)N2CCCC(OCC(=O)NC3CCC(C(c4ccc(F)cc4)N(C)C)CC3)C2)c(C)c1C (centres unmarked) [Example 435] the “5-HT (inhibition of reuptake of serotonin, % inhibition)” value was 91%.
With CN(C)C(c1ccc(Cl)cc1)C1CCC(CNC(=O)COC2CCN(S(=O)(=O)c3ccc(Cl)cc3)C2)CC1 (centres unmarked) [Example 384] the “5-HT (inhibition of reuptake of serotonin, % inhibition)” value was 87%.
In the case of COc1cc(C)c(S(=O)(=O)N2CCC(OCC(=O)NC3CCC(C(c4ccc(F)cc4)N(C)C)CC3)C2)c(C)c1C (centres unmarked) [Example 365], the “5-HT (inhibition of reuptake of serotonin, % inhibition)” value is reported as 90%.
In the case of COc1ccc(S(=O)(=O)N2CCCCC2CCOCC(=O)NCCC2CCC(C(c3ccc(F)cc3)N(C)C)CC2)cc1 (centres unmarked) [Example 398], the “5-HT (inhibition of reuptake of serotonin, % inhibition)” value is reported as 97%.
In the case of CCN(CCOCC(=O)NCCC1CCC(C(c2ccc(Cl)cc2)N(C)C)CC1)S(=O)(=O)c1c(C)cc(OC)c(C)c1C (centres unmarked) [Example 434], the “5-HT (inhibition of reuptake of serotonin, % inhibition)” value is reported as 82%.
With COc1cc(C)c(S(=O)(=O)N2CCN(CCOCC(=O)NCC3CCC(C(c4ccc(Cl)cc4)N(C)C)CC3)CC2)c(C)c1C (centres unmarked) [Example 429] the “5-HT (inhibition of reuptake of serotonin, % inhibition)” value was 95%.
CN(C)C(c1ccc(F)cc1)C1CCC(CNC(=O)COCCN2CCN(S(=O)(=O)c3ccccc3)CC2)CC1 (centres unmarked) [Example 433] was tested, and the “5-HT (inhibition of reuptake of serotonin, % inhibition)” value was 95%.
COc1cc(C)c(S(=O)(=O)N2CCC(OCC(=O)NCCC3CCC(C(c4ccc(Cl)cc4)N(C)C)CC3)C2)c(C)c1C (centres unmarked) [Example 412] was tested, and the “5-HT (inhibition of reuptake of serotonin, % inhibition)” value was 95%.
In the case of CN(C)C(c1ccc(F)cc1)C1CCC(CNC(=O)COC2CCN(S(=O)(=O)c3cccc(C(F)(F)F)c3)C2)CC1 (centres unmarked) [Example 402], the “5-HT (inhibition of reuptake of serotonin, % inhibition)” value is reported as 77%.
For COc1ccc(S(=O)(=O)N2CCCCC2COCC(=O)NCC2CCC(C(c3ccc(F)cc3)N(C)C)CC2)c(OC)c1 (centres unmarked) [Example 405], the “5-HT (inhibition of reuptake of serotonin, % inhibition)” value was 89%.
With COc1cc(C)c(S(=O)(=O)N(CCOCC(=O)NCCC2CCC(C(c3cccc(F)c3)N(C)C)CC2)Cc2ccccc2)c(C)c1C (centres unmarked) [Example 436] the “5-HT (inhibition of reuptake of serotonin, % inhibition)” value was 88%.
CN(C)C(CCc1ccccc1)C1CCC(CNC(=O)COCCN(C)S(=O)(=O)c2ccc(Cl)cc2)CC1 (centres unmarked) [Example 445] was tested, and the “5-HT (inhibition of reuptake of serotonin, % inhibition)” value was 87%.
With CN(C)C(c1ccc(F)cc1)C1CCC(NC(=O)COC2CCN(S(=O)(=O)c3ccccc3)CC2)CC1 (centres unmarked) [Example 408] the “5-HT (inhibition of reuptake of serotonin, % inhibition)” value was 93%.
For COc1ccc(S(=O)(=O)N2CCCCC2COCC(=O)NCC2CCC(C(c3ccc(Cl)cc3)N(C)C)CC2)cc1OC (centres unmarked) [Example 367], the “5-HT (inhibition of reuptake of serotonin, % inhibition)” value was 89%.
COc1cc(C)c(S(=O)(=O)N(C)CCOCC(=O)NC2CCC(C(c3ccc(F)cc3)N(C)C)CC2)c(C)c1 (centres unmarked) [Example 422] was tested, and the “5-HT (inhibition of reuptake of serotonin, % inhibition)” value was 81%.
With COc1ccc(S(=O)(=O)N2Cc3ccccc3CC2COCC(=O)NCC2CCC(C(CCc3ccccc3)N(C)C)CC2)cc1 (centres unmarked) [Example 373] the “5-HT (inhibition of reuptake of serotonin, % inhibition)” value was 85%.
With CCN(CCOCC(=O)NCCC1CCC(C(c2ccc(F)cc2)N(C)C)CC1)S(=O)(=O)c1c(C)cc(OC)c(C)c1C (centres unmarked) [Example 413] the “5-HT (inhibition of reuptake of serotonin, % inhibition)” value was 96%.
With COc1cc(C)c(S(=O)(=O)N(CCOCC(=O)NC2CCC(C(c3cccc(F)c3)N(C)C)CC2)Cc2ccccc2)c(C)c1C (centres unmarked) [Example 419] the “5-HT (inhibition of reuptake of serotonin, % inhibition)” value was 76%.
For CN(C)C(c1ccc(F)cc1)C1CCC(CNC(=O)COCCN(C)S(=O)(=O)c2ccc(Cl)cc2)CC1 (centres unmarked) [Example 399], the “5-HT (inhibition of reuptake of serotonin, % inhibition)” value was 89%.
COc1cc(C)c(S(=O)(=O)N2CCC(OCC(=O)NC3CCC(C(c4ccc(F)cc4)N(C)C)CC3)C2)c(C)c1 (centres unmarked) [Example 441] was tested, and the “5-HT (inhibition of reuptake of serotonin, % inhibition)” value was 99%.
For CN(C)C(c1ccc(F)cc1)C1CCC(CNC(=O)COCCN(C)S(=O)(=O)c2ccc(F)cc2)CC1 (centres unmarked) [Example 400], the “5-HT (inhibition of reuptake of serotonin, % inhibition)” value was 103%.
